Data: patent US7378232B2 (priority 2002, dated 2008)
Like-named read-outs stand apart in the source and are kept apart here.

Experiments:
Type in all cases: cell-based
[1] = tested on: wild-type melan-a melanocytes (A) and P-null melanocytes (P)
[2] = tested on: yeast cells expressing / not expressing the P protein (strain SH3866)
[3] = tested on: yeast cells not expressing the P protein; test: Nigericin effect on yeast cell viability, cells without P protein; conditions: Saccharomyces cerevisiae, data not shown
[4] = tested on: yeast cells expressing the P protein; test: Nigericin effect on yeast cell viability, P protein-expressing cells; conditions: Saccharomyces cerevisiae, data not shown
[5] = tested on: P protein-expressing yeast cells and control yeast cells; test: Selenite exposure of yeast: colony size and red precipitate formation; conditions: 10-50 mM selenite in agar, 30° C. for 3 days, FIG. 3B
Description: In another experiment, P protein-expressing yeast cells and control yeast cells were exposed to various concentrations of selenite. The toxic affect of selenite in yeast is believed to be due to DNA damage. The major mode of selenite detoxification appears to be its reduction by glutathione to elementary selenium that accumulates as a red precipitate in the cell vacuole (Pinson et al. Molecular Microbiology 36:679-687(2000)).
10 mM, 20 mM, 30 mM, 40 mM, and 50 mM selenite solutions were prepared in 55° C. selective medium-agar and plated in duplicate into 24-well plates. Actively growing yeast cultures were diluted to A600 values of 0.001, and then 10 μl aliquots were spotted in duplicate onto the selenite-containing agar medium. Plates were incubated at 30° C. for 3 days. […]

[6] = 24-well selective medium-agar, 30° C. for 3 days, FIG. 3A

Molecule	TOXIN S[…] (as a function of P protein expression) [1]	other results
C=CCC(N)C(=O)O (stereo not shown) [ALLYLGLYCINE, allylglycine]	–	TOXIN S[…] CHANGE (as a function of P protein expression) [1]: ✓
C[C@@H]1[C@H](O)[C@@H](C)/C=C/C=C/C=C/C=C/C=C/C=C/C=C/[C@H](O[C@@H]2O[C@H](C)[C@@H](O)[C@H](N)[C@@H]2O)C[C@@H]2O[C@](O)(C[C@@H](O)C[C@@H](O)[C@H](O)CC[C@@H](O)C[C@@H](O)CC(=O)O[C@H]1C)C[C@H](O)[C@H]2C(=O)O [AMPHOTERICIN, amphotericin]	–	TOXIN S[…] CHANGE (as a function of P protein expression) [1]: ✓
[Sb] [ANTIMONY, antimony]	✓	yeast colony size, P protein-expressing vs non-expressing colonies exposed to the compound [2]: do not reach the same size
CO/C1=C\C(C)=C\[C@@H](C)[C@@H](O)[C@@H](C)C/C(C)=C/C=C/[C@H](OC)[C@@H]([C@@H](C)[C@@H](O)[C@H](C)[C@@]2(O)C[C@@H](O)[C@H](C)[C@@H](C(C)C)O2)OC1=O [BAFILOMYCIN Al, bafilomycin A1]	✓	–
CCCCS(=N)(=O)CCC(N)C(=O)O (stereo not shown) [BUTHIONINE SULFOXIMINE (BSO), buthionine sulfoximine]	✓	–
[Cd] [CADMIUM, cadmium]	✓	–
CCN(CC)CCCC(C)Nc1ccnc2cc(Cl)ccc12 (stereo not shown) [CHLOROQUINE, chloroquine]	✓	–
N.N.[Cl][Pt][Cl] [CISPLATIN, cisplatin]	✓	–
C[C@@H]1C[C@@H]([C@H](O)CC2CC(=O)NC(=O)C2)C(=O)[C@@H](C)C1 [CYCLOHEXIMIDE, cycloheximide]	✓	–
COc1cccc2c1C(=O)c1c(O)c3c(c(O)c1C2=O)C[C@@](O)(C(=O)CO)C[C@@H]3O[C@H]1C[C@H](N)[C@H](O)[C@H](C)O1 [DOXORUBICIN, doxorubicin]	✓	–
C=C(CC)C(=O)c1ccc(OCC(=O)O)c(Cl)c1Cl [ETHACRYNIC ACID, ethacrynic acid]	✓	–
N#CC(C#N)=NNc1ccc(OC(F)(F)F)cc1 [FCCP, carbonyl cyanide p-trifluoromethoxyphenylhydrazone]	✓	–
O=S(=O)([O-])[O-].[Fe+2] [IRON SULFATE (FESO4), iron sulfate (FeSO4)]	✓	–
CC[C@H]1/C=C/C=C/C[C@@H](C)[C@H](O)[C@@](C)(O)C(=O)[C@@H](C)[C@H](O)[C@@H](C)C(=O)[C@@H](C)[C@H](O)[C@@H](C)/C=C/C(=O)O[C@@H]2[C@H](C)[C@H](CC1)O[C@]1(CC[C@H](C)[C@H](C[C@@H](C)O)O1)[C@H]2C [OLIGOMYCIN, oligomycin]	✓	–
COc1cc(NC(C)CCCN)c2ncccc2c1 (stereo not shown) [PRIMAQUINE, primaquine]	–	TOXIN S[…] CHANGE (as a function of P protein expression) [1]: ✓
O=[Se](=O)(O)O [SELENATE, selenate]	✓	–
CC(C)[C@@H]1NC(=O)[C@H](C)OC(=O)[C@@H](C(C)C)NC(=O)[C@@H](C(C)C)OC(=O)[C@H](C(C)C)NC(=O)[C@H](C)OC(=O)[C@@H](C(C)C)NC(=O)[C@@H](C(C)C)OC(=O)[C@H](C(C)C)NC(=O)[C@H](C)OC(=O)[C@@H](C(C)C)NC(=O)[C@@H](C(C)C)OC1=O [VALINOMYCIN, valinomycin]	✓	–
CC[C@]1(O)C[C@@H]2CN(CCc3c([nH]c4ccccc34)[C@@](C(=O)OC)(c3cc4c(cc3OC)N(C)[C@H]3[C@@](O)(C(=O)OC)[C@H](OC(C)=O)[C@]5(CC)C=CCN6CC[C@]43[C@@H]65)C2)C1 [VINBLASTINE, vinblastine]	✓	–
CO[C@@H]1C[C@@H](C[C@H]2CC[C@H](C)[C@H]([C@@H](C)C(=O)O)O2)O[C@]2(O[C@](C)([C@H]3CC[C@@](C)([C@@H]4O[C@@H]([C@H]5O[C@@](O)(CO)[C@H](C)C[C@@H]5C)C[C@@H]4C)O3)C[C@H]2C)[C@@H]1C [nigericin]	–	IC50 [3]: 25 µM; IC50 [4]: 3 µM
O=[Se](O)O [selenite]	–	red precipitate accumulation in P-expressing cells vs control cells [5]: accumulate more red precipitate; selenite sensitivity, cells expressing a P protein versus control cells [5]: no difference
arsenate	✓	yeast colony size, P protein-expressing vs non-expressing colonies exposed to the compound [2, 6]: do not reach the same size
arsenic trioxide	✓	yeast colony size, P protein-expressing vs non-expressing colonies exposed to the compound [2, 6]: do not reach the same size
arsenite	✓	–
